Data on 4 substances can be found in PMC12363342, “Investigating the N-terminal linker histone H1 subtypes as substrates for JmjC lysine demethylases” (RSC Chemical Biology, 2025).

In the test the target is T1, KDM4D (Homo sapiens, UniProt Q6B0I6).
T1 construct: KDM4AM1-L359,[38]; KDM4DM1-L359,[39]; KDM4EM1-R336,[30]; His6 (N); made in house; host or cells: Escherichia coli
T1 sequence (Q6B0I6 1-359): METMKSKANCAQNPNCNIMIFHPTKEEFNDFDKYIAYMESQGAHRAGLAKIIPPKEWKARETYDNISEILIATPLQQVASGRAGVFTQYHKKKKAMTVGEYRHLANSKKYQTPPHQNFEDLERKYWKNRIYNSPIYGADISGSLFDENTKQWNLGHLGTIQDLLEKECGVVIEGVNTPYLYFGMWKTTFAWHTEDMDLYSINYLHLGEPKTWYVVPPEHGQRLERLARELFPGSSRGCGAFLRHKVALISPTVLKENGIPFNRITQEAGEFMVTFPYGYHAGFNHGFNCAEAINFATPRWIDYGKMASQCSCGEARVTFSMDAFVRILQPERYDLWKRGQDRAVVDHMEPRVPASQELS
The test can be described thus: formaldehyde dehydrogenase (FDH)-coupled demethylation assay, KDM4D. The class given is biochemical. As to conditions: FDH-coupled fluorescence assay, KDM4D (400 nM), H1 peptide 1–50 μM, HEPES pH 7.5; for Km / kcat (KDM4D): FAS 20 μM, LAA 200 μM, 2OG 200 μM, NAD+ 500 μM, FDH 2.0 μM, mean ± SEM (n = 3); for kcat/KM (KDM4D): catalytic efficiency. How it is done:
Kinetic parameters were determined by recording the initial reaction rates of NADH production at varying histone peptide concentrations (Fig. S24 and S25). The overall catalytic efficiencies (as measured by kcat/KM) gave the following rank orders for KDM4D: H1.5K26me3 (0.192 μM^−1 min^−1) > H1.3K24me3 (0.066 μM^−1 min^−1) ≈ H1.2K26me3 (0.063 μM^−1 min^−1) > H1.4K25me3 (0.044 μM^−1 min^−1). […] These rank orders differ somewhat from the initial screening results. However, given the complexities of 2OG oxygenase catalysis and the relatively low catalytic efficiencies observed, such apparent discrepancies are not unexpected.[28] It is also noteworthy that, in some instances, increased KM values correlate with elevated kcat values, resulting in similar kcat/KM ratios, particularly for H1.4K25me3 with KDM4D and H1.2K25me3 with KDM4E.
Kinetic parameters for demethylation of N^ε-trimethylated H1 peptides by KDM4D and KDM4E (400 nM) measured using a formaldehyde dehydrogenase-coupled demethylation assay. H1 peptide (1–50 μM), FAS (20 μM), LAA (200 μM), 2OG (200 μM), NAD^+ (500 μM), KDM4 enzyme (0.8 μM) and FDH (2.0 μM) in HEPES buffer at pH 7.5. Each value is shown as mean ± SEM (n = 3)
Substrate Km values for KDM4 enzymes were determined using a reported formaldehyde dehydrogenase/NAD coupled enzyme assay that quantifies formaldehyde production.[30] In brief, DNA encoding for wild-type full-length formaldehyde dehydrogenase was synthesised (by GenScript) and cloned into the pET-28B vector. The resultant plasmid was then transformed into the Rosetta strain of Escherichia coli. Coupled enzyme-assays were carried out in black polystyrene 384-well non-binding surface microplates (Corning) and kinetic measurements were obtained using a PHERAstar FS plate reader (BMG Labtech) equipped with a 350 nm excitation and 460 nm emission optic module.[30] All steps were performed in the assay buffer (50 mM HEPES pH 7.5, 0.01% (v/v) Tween-20). Substrate mixtures were prepared freshly and contained FAS (20 μM), LAA (200 μM), 2OG (200 μM), NAD^+ (500 μM), and H1 peptide (1–50 μM); they were dispensed (25 μL final volume) in triplicate. Assays were initiated by plate reader injection of 25 μL of a mixture of KDM4 (0.8 μM) and formaldehyde dehydrogenase (FDH) (2.0 μM) in assay buffer (50 mM HEPES pH 7.5, 0.01% (v/v) Tween-20). Production of NADH was measured at 60 second intervals over 25 cycles. Kinetic parameters were determined from the reaction rate during the initial linear phase of formaldehyde production, and specific activities were calculated from a formaldehyde standard curve and fitted to the Michaelis–Menten equation using GraphPad Prism Version 5.0 (GraphPad software, La Jolla, CA, USA). Each assay was carried out in triplicate with independently prepared reaction mixtures.

Square brackets hold non-standard residues; d marks the D form. Ends that are not written are not given here. Lys(Me3) = C[N+](C)(C)CCCC[C@H](N)C(=O)O

For “KKKAAK[Lys(Me3)]AGGTPRKA [Peptide H1.2K26me3, 15-mer linker histone H1.2 residues 20-34 peptide, tri-methylated K26]”, the Km is 4.6 ± 0.41 µM, the “kcat (KDM4D)” value was 0.29 ± 0.01 min⁻¹ and the “kcat/KM (KDM4D)” value worked out at 0.063 µM⁻¹ min⁻¹.

Turning to “KKKAR[Lys(Me3)]SAGAAKRKA [Peptide H1.4K25me3, 15-mer linker histone H1.4 residues 20-34 peptide, tri-methylated K25]”, the Km was 60 ± 24.3 µM, the “kcat (KDM4D)” value amounted to 2.66 ± 0.91 min⁻¹ and the “kcat/KM (KDM4D)” value is 0.044 µM⁻¹ min⁻¹.

Consider “KKKATK[Lys(Me3)]AAGAGAAK [Peptide H1.5K26me3, 15-mer linker histone H1.5 residues 20-34 peptide, tri-methylated K26]”, for which the Km worked out at 7.51 ± 0.77 µM, the “kcat (KDM4D)” value worked out at 1.44 ± 0.08 min⁻¹ and the “kcat/KM (KDM4D)” value was 0.192 µM⁻¹ min⁻¹.

Turning to “KKKA[Lys(Me3)]KAGATAGKRK [Peptide H1.3K24me3, 15-mer linker histone H1.3 residues 20-34 peptide, tri-methylated K24]”, the Km is 5.93 ± 0.69 µM, the “kcat (KDM4D)” value was determined as 0.39 ± 0.02 min⁻¹ and the “kcat/KM (KDM4D)” value came out at 0.066 µM⁻¹ min⁻¹.
